From patent US11123354B2, “Method for the treatment of osteoarthritis” (ABIOGEN PHARMA S.P.A., priority 2016, dated 2021)

Key:
[1] = tested on: CTX-II (C-telopeptide of type II collagen); experiment: CTX-II final serum concentration, MIA-induced OA rats, weekly treatment; format: in vivo, Sprague Dawley rats
Experimental: (§1) As an experimental model of OA induction, one involving the intra-articular administration of MIA (monosodium iodoacetate) was used.
(§2) The rats were anesthetized by a gaseous mixture of isoflurane and oxygen, and maintained in a supine position. Once the infrapatellar ligament was identified by touch, a single intra-articular injection of monosodium iodoacetate (MIA) was performed in the right knee, after having shaved the skin of the area, while keeping the joint slightly flexed. The amount of MIA injected was equal to 1 mg dissolved in 50 μl of saline solution, having a pH of about 4.5, as measured just before administration. The joint of the left knee was instead injected with 50 μl of saline solution alone, and this represented the internal control.
(§3) The treatment involved 4 weekly administrations of sodium chlodronate, followed by one week of follow-up.
(§4) The study included 8 treatment groups, each consisting of 10 male Sprague Dawley rats, specifically five treatment groups consisting of OA rats, on which the chlodronate doses of 2, 10, 20, 30, and 40 mg/ml, corresponding to 0.1, 0.5, 1, 1.5, and 2 mg/rat, were tested, and the remaining three groups represented by untreated OA rats, operated but untreated Sham rats, and rats administered only with placebo at pH 4.5.
(§5) During the treatment period, the animals were regularly checked in relation to the increase in body mass, food intake, and general health conditions. Clinical and hematological analyses were performed at the end of the study. The difference between the size of the edema in the two inflamed knees for all the observation groups, the final serum concentration of CTX-I (C-telopeptide of type I collagen), as a marker of bone turnover, and the final serum concentration of CTX-II (C-telopeptide of type II collagen), as a marker of cartilage turnover were investigated.
Considering that CTX-II (C-telopeptide of type II collagen) is a cartilage turnover marker and its concentration levels are proportional to the […], the measurement of CTX-II final serum concentration value is a measure of the treatment efficacy.

[2] = tested on: CTX-I (C-telopeptide of type I collagen); experiment: CTX-I final serum concentration, MIA-induced OA rats, weekly treatment; format: in vivo, Sprague Dawley rats
Experimental: as §1, §2, §3, §4, §5
Considering that CTX-I (C-telopeptide of type I collagen) is a bone turnover marker and its concentration levels are proportional to the osteoclastic activity, the measurement of CTX-I final serum concentration value is a measure of the treatment efficacy.

[3] = pH, osmolality and density of unitary dosage form aqueous solutions; format: physicochemical; conditions: aqueous solution
Experimental: Osmolality values were determined according to USP, chapter […] under the heading “Osmolality and Osmolarity”.
Certain compositions of the invention were prepared in unitary dosage form, in the form of an aqueous solution, for weekly, biweekly or monthly administration, comprising sodium chlodronate in tetrahydrate form, whose quali-quantitative compositions and pH, osmolality, and density values, are shown in Table 8 below.
As it is apparent from the table, all the compositions prepared had particularly high osmolality values. Osmolalities were determined by GONOTEC Osmometer, OSMOMAT 3000-D model, serial number 3000150264 according to USP, chapter 785 under the title “Osmolality and Osmolarity”.

[4] = tested on: patients with osteoarthritis of the knee; conditions: 20 patients, IA 0.9 mg on days 1, 3, 7, 10, 14 and 21; cited from earlier work
[5] = 5.00 mg sodium chlodronate per unitary dosage form (1 ml)
[6] = 10.00 mg sodium chlodronate per unitary dosage form (1 ml)
[7] = 20.00 mg sodium chlodronate per unitary dosage form (1 ml)
[8] = 30.00 mg sodium chlodronate per unitary dosage form (1 ml)
[9] = 40.00 mg sodium chlodronate per unitary dosage form (1 ml)

Question: For `O=P([O-])(O)C(Cl)(Cl)P(=O)([O-])O.[Na+].[Na+]` [Sodium Chlodronate, sodium chlodronate], which “CTX-II Value” ([1]; 2 mg/mL weekly i.a.) is on record?
Answer: The value was 6.84 pg/mL.

Question: And the “CTX-II Value” ([1]; 10 mg/mL weekly i.a.)?
Answer: The value was 6.48 pg/mL.

Question: And the “CTX-II Value” ([1]; 20 mg/mL weekly i.a.)?
Answer: The value was 5.93 pg/mL.

Question: What about the “CTX-II Value” ([1]; 30 mg/mL weekly i.a.) of the same compound?
Answer: Its value is 5.67 pg/mL.

Question: And the “CTX-II Value” ([1]; 40 mg/mL weekly i.a.)?
Answer: Its value is 5.73 pg/mL.

Question: What about the “CTX-I Value” ([2]; 2 mg/mL weekly i.a.) of the same compound?
Answer: Its value is 4.77 pg/mL.

Question: And the “CTX-I Value” ([2]; 10 mg/mL weekly i.a.)?
Answer: Its value is 4.87 pg/mL.

Question: What about the “CTX-I Value” ([2]; 20 mg/mL weekly i.a.) of the same compound?
Answer: Its value is 4.6 pg/mL.

Question: And the “CTX-I Value” ([2]; 30 mg/mL weekly i.a.)?
Answer: The value was 4.36 pg/mL.

Question: What about the “CTX-I Value” ([2]; 40 mg/mL weekly i.a.) of the same compound?
Answer: Its value is 4.16 pg/mL.

Question: What about the “Density” value [3, 5] of the same compound?
Answer: The value was 1.014 g/mL.

Question: What about the “Osmolality (mOsm/Kg)” value [3, 5] of the same compound?
Answer: The value was 395 mOsm/Kg.

Question: And the pH [3, 5]?
Answer: The pH was 4.6.

Question: And the “Density” value [3, 6]?
Answer: Its value is 1.016 g/mL.

Question: What about the “Osmolality (mOsm/Kg)” value [3, 6] of the same compound?
Answer: Its value is 400 mOsm/Kg.

Question: And the pH [3, 6]?
Answer: Its pH is 4.5.

Question: And the “Density” value [3, 7]?
Answer: The value was 1.021 g/mL.

Question: What about the “Osmolality (mOsm/Kg)” value [3, 7] of the same compound?
Answer: Its value is 388 mOsm/Kg.

Question: And the pH [3, 7]?
Answer: Its pH is 4.4.

Question: What about the “Density” value [3, 8] of the same compound?
Answer: The value was 1.027 g/mL.

Question: What about the “Osmolality (mOsm/Kg)” value [3, 8] of the same compound?
Answer: The value was 408 mOsm/Kg.

Question: What about the pH [3, 8] of the same compound?
Answer: Its pH is 4.4.

Question: What about the “Density” value [3, 9] of the same compound?
Answer: The value was 1.032 g/mL.

Question: What about the “Osmolality (mOsm/Kg)” value [3, 9] of the same compound?
Answer: Its value is 413 mOsm/Kg.

Question: What about the pH [3, 9] of the same compound?
Answer: Its pH is 4.5.

Question: What about the “effect on pain symptoms (spontaneous pain and pain in movement)” value [4] of the same compound?
Answer: Its value is “marked positive effect”.
